Data on 13 molecules can be found in PubChem BioAssay (NCI).

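Interpolation was linear, between the two tested concentrations surrounding the appropriate level; five concentrations were tested over 48 hours in 96-well plates. Definition used: TGI = concentration required for complete inhibition of growth.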 Bounds are passed on as bounds.

Some test systems named below: A549 NSCLC; HOP-62 NSCLC; HOP-92 NSCLC; KM12 colon; MDA-N; NCI-H460 lung; OVCAR-3 ovarian; RXF 393 renal; SK-OV-3 ovarian; U251 CNS.
What all share (assay): NCI anticancer screen, dose series, 48 h

For the molecule `CC(C(=O)NCCNC(=O)CCC(=O)N(C)O)C(=O)NCCNC(=O)CCC(=O)N(C)O`, the TGI with A549 NSCLC, with HOP-62 NSCLC, with HOP-92 NSCLC, in the test with KM12 colon, in the test on MDA-N and with NCI-H460 lung was above 100 µM throughout. Further, the TGI in the test on OVCAR-3 ovarian, in the test on RXF 393 renal, in the test on SK-OV-3 ovarian and in the test with U251 CNS was above 100 µM throughout.

With `CC(C)(C)c1cc(C(=O)C2Cc3ccccc3C(=O)O2)cc(C(C)(C)C)c1O` (stereo not given), the TGI was determined as 54.4 µM in the test on A549 NSCLC; 30.8 µM in the test on HOP-62 NSCLC; 45.3 µM with HOP-92 NSCLC; 32.1 µM in the test on KM12 colon; 23.9 µM in the test on MDA-N; 23.1 µM with NCI-H460 lung. The TGI with OVCAR-3 ovarian came to 25.5 µM; in the test on RXF 393 renal it was 27.7 µM; in the test with SK-OV-3 ovarian, 56.3 µM; in the test with U251 CNS, 22.2 µM.

Consider `COC(=O)[C@@H]1[C@H](O)CCC2=C(CC(=O)c3ccoc3)[C@H](C)CC[C@]21C`, for which the TGI in the test with A549 NSCLC, in the test on HOP-62 NSCLC, in the test on HOP-92 NSCLC, in the test on KM12 colon, with MDA-N and in the test with NCI-H460 lung was above 50 µM in each case. The TGI with OVCAR-3 ovarian, in the test with RXF 393 renal, with SK-OV-3 ovarian and in the test on U251 CNS was above 50 µM in each case.

As to `O=C(OCC1CCCN2CCCCC12)c1cccnc1` (stereo not given), the TGI in the test with A549 NSCLC, in the test with HOP-92 NSCLC, in the test on KM12 colon, with MDA-N, in the test on NCI-H460 lung and with RXF 393 renal was above 100 µM in each case. Besides, the TGI in the test on SK-OV-3 ovarian and in the test with U251 CNS was above 100 µM each time.

As for `Nc1ncnc2c1ncn2C1OC(CO)C(O)C1NS(=O)(=O)c1ccccc1` (stereo not given), the TGI in the test on A549 NSCLC, with HOP-62 NSCLC, in the test on HOP-92 NSCLC, with KM12 colon, in the test on MDA-N and with NCI-H460 lung was above 100 µM each time. Also, the TGI with OVCAR-3 ovarian, in the test on RXF 393 renal, in the test with SK-OV-3 ovarian and with U251 CNS was above 100 µM each time.

`COc1ccc(C(=O)c2c(-c3ccccc3NC(=O)C(F)(F)F)[nH]c3ccccc23)cc1`: the TGI with A549 NSCLC stood at 20.2 µM; with HOP-62 NSCLC, 22.1 µM; in the test on HOP-92 NSCLC it was 27.6 µM; with KM12 colon, 21.8 µM; in the test with MDA-N it was 29.3 µM; in the test with NCI-H460 lung, 16.4 µM. Moreover, the TGI amounted to 8.67 µM in the test with OVCAR-3 ovarian, 32.7 µM in the test on SK-OV-3 ovarian and 7.17 µM with U251 CNS.

As to `N/C(=N\S(=O)(=O)c1ccc(-c2ccccn2)s1)Nc1ccc(Cl)cc1`, the TGI in the test on A549 NSCLC was 47.2 µM; in the test on HOP-62 NSCLC, 39.2 µM; with HOP-92 NSCLC, 28.9 µM; in the test with KM12 colon it was 70.4 µM; in the test with MDA-N, 19.6 µM; in the test on NCI-H460 lung, 34.8 µM. For the same molecule, the TGI with OVCAR-3 ovarian turned out to be 67.6 µM; in the test on RXF 393 renal, 35.3 µM; in the test on SK-OV-3 ovarian, 47.9 µM; with U251 CNS it was 28.6 µM.

Turning to `CCNC(=O)NNc1ncnc2c1c(-c1ccc(Cl)cc1)cn2-c1ccc(C)cc1`, the TGI in the test on A549 NSCLC was 37.2 µM; in the test with HOP-62 NSCLC, 35.2 µM; in the test with HOP-92 NSCLC it was 34 µM; in the test with KM12 colon it was 35 µM; in the test with MDA-N it was 36.8 µM; in the test with NCI-H460 lung, 48.5 µM. For the same molecule, the TGI was 33.6 µM in the test with OVCAR-3 ovarian, 33.1 µM in the test on RXF 393 renal, 73.7 µM in the test on SK-OV-3 ovarian and 31.3 µM in the test with U251 CNS.

In the case of `Oc1cc(O)c2c(c1)O[C@H](c1cc(O)c(O)c(O)c1)[C@@H](O)C2`, the TGI was above 100 µM in the test on A549 NSCLC; 34 µM with HOP-62 NSCLC; above 10 µM with HOP-92 NSCLC; 44.2 µM in the test on MDA-N; 37.7 µM with NCI-H460 lung; 46.6 µM in the test with OVCAR-3 ovarian. The TGI in the test on RXF 393 renal was determined as 30.7 µM; in the test on SK-OV-3 ovarian, 74.7 µM; in the test on U251 CNS, 34.5 µM.

Take `CC(C)NCC(O)c1ccc(O)c2ncccc12` (stereo not given): the TGI in the test with A549 NSCLC, with HOP-62 NSCLC, in the test with HOP-92 NSCLC, in the test on KM12 colon, with MDA-N and with NCI-H460 lung was above 100 µM each time. Further, the TGI with OVCAR-3 ovarian is 55 µM; in the test with RXF 393 renal, above 100 µM; in the test on SK-OV-3 ovarian, above 100 µM; in the test with U251 CNS, above 100 µM.

As for `Oc1cc(Cl)cc2cc(Cl)cnc12`, the TGI in the test on A549 NSCLC was above 100 µM; in the test on HOP-62 NSCLC, 89.9 µM; in the test with HOP-92 NSCLC, 74.1 µM; in the test on KM12 colon, above 100 µM; in the test with MDA-N it was above 100 µM; in the test with NCI-H460 lung it was 14 µM. Also, the TGI in the test on OVCAR-3 ovarian is 5.43 µM; with RXF 393 renal it was 48.2 µM; with SK-OV-3 ovarian it was above 100 µM; in the test on U251 CNS, above 100 µM.

On to `O=C(/C=C/c1ccc2c(c1)OCO2)NCCc1ccco1`, for which the TGI in the test with A549 NSCLC, with HOP-62 NSCLC, in the test on HOP-92 NSCLC, with KM12 colon, in the test on MDA-N and with NCI-H460 lung was above 100 µM in each case. Also, the TGI with OVCAR-3 ovarian, in the test on RXF 393 renal, with SK-OV-3 ovarian and in the test with U251 CNS was above 100 µM each time.

For `C=C1C(=O)[C@]23C[C@H]1C[C@@H](O)[C@H]2[C@]1(COC3=O)[C@@H](OC(C)=O)CC[C@@](C)(COC(C)=O)[C@H]1C=O`, the TGI with A549 NSCLC was above 50 µM; in the test on HOP-62 NSCLC it was above 50 µM; in the test on HOP-92 NSCLC, 22.3 µM; with KM12 colon, above 50 µM; in the test on MDA-N it was above 50 µM; in the test with NCI-H460 lung it was above 50 µM. The TGI with OVCAR-3 ovarian, with RXF 393 renal and in the test with U251 CNS was above 50 µM in each case.
